The values that follow are results of earlier work, collected in patent US20240189233A1, “POWDERY PREPARATION AND METHOD FOR MANUFACTURING SAME” (ICHIMARU PHARCOS CO., LTD., priority 2021, published 2024).

This data set has as its system human breast cancer cells. The following applies: Cheng W L et al. (2011).

As to `C=C[C@H](O)C#CC#C[C@H](O)/C=C\CC/C=C\C` [araliadiol], the growth inhibitory activity result is listed as “growth inhibitory activity”.
